# Results from PubChem BioAssay (NCI).
#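 GI50 is the concentration that inhibits growth by half. At the TGI there is no net growth.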
# Columns and labels:
# Assay in all cases: inhibition of tumour cell growth, NCI panel, 384-well format
# [1] = system: KM12 colon
# [2] = system: HOP-62 NSCLC
# [3] = system: T-47D breast
# [4] = system: SNB-75 CNS
# [5] = system: LOX IMVI melanoma
# [6] = system: SK-OV-3 ovarian
# [7] = system: SF-268 CNS
# [8] = system: SN12C renal
# [9] = system: HOP-92 NSCLC
# [10] = system: RPMI-8226 leukemia
# [11] = system: HT29 colon
# [12] = system: SW-620 colon
# [13] = system: HCT-15 colon
# [14] = system: PC-3 prostate
# [15] = system: UO-31 renal
# [16] = system: K-562 leukemia
# [17] = system: MDA-MB-231 breast
# [18] = system: TK-10 renal
# [19] = system: SK-MEL-2 melanoma
# [20] = system: CAKI-1 renal
# [21] = system: SK-MEL-28 melanoma
# [22] = system: SF-295 CNS
# [23] = system: M14 melanoma
# [24] = system: NCI-H226 lung
# [25] = system: 786-0 renal
# [26] = system: DU-145 prostate
# [27] = system: UACC-62 melanoma
# [28] = system: NCI-H23 lung
# [29] = system: NCI-H460 NSCLC
# [30] = system: HS 578T breast
# [31] = system: OVCAR-5 ovarian
# [32] = system: ACHN renal
# [33] = system: SR leukemia
# [34] = system: OVCAR-8 ovarian
# [35] = system: HCT-116 colon
# [36] = system: MDA-MB-468 breast
# [37] = system: MDA-MB-435 melanoma
# [38] = system: RXF 393 renal
# [39] = system: IGROV1 ovarian
# [40] = system: HL-60(TB) leukemia
# [41] = system: NCI-H522 lung
# [42] = system: NCI-H322M lung
# [43] = system: MOLT-4 leukemia
# [44] = system: SNB-19 CNS
# [45] = system: MALME-3M melanoma
# [46] = system: U251 glioblastoma
# [47] = system: NCI/ADR-RES ovarian
# [48] = system: SF-539 CNS
# [49] = system: MCF7 breast
# [50] = system: BT-549 breast
# [51] = system: OVCAR-4 ovarian
# [52] = system: EKVX NSCLC
# [53] = system: UACC-257 melanoma
# [54] = system: A498 renal
# [55] = system: OVCAR-3 ovarian
# [56] = system: A549 NSCLC
# [57] = system: SK-MEL-5 melanoma
# [58] = system: HCC-2998 colon
# [59] = system: COLO 205 colon
smiles,measurement,setting,value
CC(C)C[C@H](NC(=O)CNC(=O)c1cc(Cl)ccc1Cl)B1OC(=O)CC(CC(=O)O)(C(=O)O)O1 (stereo partly drawn),GI50,[1],0.0547 µM
same,TGI,[1],0.148 µM
same,GI50,[2],0.0423 µM
same,TGI,[2],0.164 µM
same,GI50,[3],0.0256 µM
same,TGI,[3],0.0708 µM
same,GI50,[4],0.0474 µM
same,TGI,[4],0.118 µM
same,GI50,[5],0.0339 µM
same,TGI,[5],0.125 µM
same,GI50,[6],0.204 µM
same,TGI,[6],1.55 µM
same,GI50,[7],0.0236 µM
same,TGI,[7],0.0538 µM
same,GI50,[8],0.0873 µM
same,TGI,[8],0.263 µM
same,GI50,[9],0.03 µM
same,TGI,[9],0.0718 µM
same,GI50,[10],< 0.0132 µM
same,TGI,[10],< 0.0177 µM
same,GI50,[11],0.0234 µM
same,TGI,[11],0.0624 µM
same,GI50,[12],< 0.0153 µM
same,TGI,[12],0.0332 µM
same,GI50,[13],0.0367 µM
same,TGI,[13],0.101 µM
same,GI50,[14],0.0481 µM
same,TGI,[14],0.113 µM
same,GI50,[15],0.018 µM
same,TGI,[15],0.0366 µM
same,GI50,[16],0.0172 µM
same,TGI,[16],0.035 µM
same,GI50,[17],0.0333 µM
same,TGI,[17],0.0863 µM
same,GI50,[18],< 0.018 µM
same,TGI,[18],0.053 µM
same,GI50,[19],0.0215 µM
same,TGI,[19],0.042 µM
same,GI50,[20],< 0.0204 µM
same,TGI,[20],0.152 µM
same,GI50,[21],< 0.0144 µM
same,TGI,[21],0.0253 µM
same,GI50,[22],0.0305 µM
same,TGI,[22],0.0884 µM
same,GI50,[23],0.0165 µM
same,TGI,[23],0.0326 µM
same,GI50,[24],< 0.0135 µM
same,TGI,[24],0.0245 µM
same,GI50,[25],0.024 µM
same,TGI,[25],0.0916 µM
same,GI50,[26],0.0441 µM
same,TGI,[26],0.233 µM
same,GI50,[27],0.0256 µM
same,TGI,[27],0.0661 µM
same,GI50,[28],0.0268 µM
same,TGI,[28],0.0755 µM
same,GI50,[29],0.0923 µM
same,TGI,[29],0.317 µM
same,GI50,[30],0.0167 µM
same,TGI,[30],0.0327 µM
same,GI50,[31],0.0505 µM
same,TGI,[31],0.181 µM
same,GI50,[32],< 0.0203 µM
same,TGI,[32],0.0637 µM
same,GI50,[33],< 0.0177 µM
same,TGI,[33],< 0.0216 µM
same,GI50,[34],0.0668 µM
same,TGI,[34],0.158 µM
same,GI50,[35],< 0.0159 µM
same,TGI,[35],0.0347 µM
same,GI50,[36],< 0.0144 µM
same,TGI,[36],< 0.0206 µM
same,GI50,[37],< 0.0148 µM
same,TGI,[37],0.0283 µM
same,GI50,[38],< 0.014 µM
same,TGI,[38],0.0271 µM
same,GI50,[39],0.0706 µM
same,TGI,[39],0.178 µM
same,GI50,[40],< 0.0134 µM
same,TGI,[40],0.0199 µM
same,GI50,[41],0.0157 µM
same,TGI,[41],0.0311 µM
same,GI50,[42],0.351 µM
same,TGI,[42],2.02 µM
same,GI50,[43],< 0.0128 µM
same,TGI,[43],< 0.0174 µM
same,GI50,[44],0.0594 µM
same,TGI,[44],0.272 µM
same,GI50,[45],< 0.0137 µM
same,TGI,[45],0.0275 µM
same,GI50,[46],0.0985 µM
same,TGI,[46],0.472 µM
same,GI50,[47],0.189 µM
same,TGI,[47],0.448 µM
same,GI50,[48],0.0151 µM
same,TGI,[48],0.0313 µM
same,GI50,[49],< 0.0213 µM
same,TGI,[49],0.619 µM
same,GI50,[50],0.0161 µM
same,TGI,[50],0.0308 µM
same,GI50,[51],0.0532 µM
same,TGI,[51],0.117 µM
same,GI50,[52],0.0974 µM
same,TGI,[52],0.448 µM
same,GI50,[53],0.0173 µM
same,TGI,[53],0.0333 µM
same,GI50,[54],< 0.0237 µM
same,TGI,[54],0.191 µM
same,GI50,[55],< 0.0143 µM
same,TGI,[55],0.0264 µM
same,GI50,[56],0.106 µM
same,TGI,[56],1.51 µM
same,GI50,[57],< 0.0155 µM
same,TGI,[57],0.0281 µM
same,GI50,[58],0.0515 µM
same,TGI,[58],0.101 µM
same,GI50,[59],0.058 µM
same,TGI,[59],0.557 µM
